Measurements taken from EP0387762A2, “Medicament with positive inotropic activity, containing a synergistically active mixture consisting of a benzimidazole and a beta-blocker, its preparation and use” (Dr. Karl Thomae GmbH, priority 1989, dated 1990).

Legend:
[1] = Acute toxicity, i.v., rat; conditions: in vivo, iv, Ratte, read-out: LD₅₀ i.v.
Description: (§1) Die erfindungsgemäß einsetzten Verbindungen sind gut verträglich. So weist beispielsweise die Verbindung A folgende akute Toxizitäten auf: […]

[2] = Acute toxicity, p.o., mouse; conditions: in vivo, po, Maus, read-out: LD₅₀ p.o.
Description: as §1

## COc1ccc(-c2nc3ccc(C4=NNC(=O)CC4C)cc3[nH]2)cc1 (stereo not drawn) [Verbindung A, 2-(4-Methoxyphenyl)-5-(5-methyl-3-oxo-4,5-dihydro-2H-6-pyridazinyl)-benzimidazol]
[1]
  LD50: 72 mg/kg
[2]
  LD50: 600 mg/kg

## CC1CC(=O)NN=C1c1ccc2nc(-c3ccc(O)cc3)[nH]c2c1 (stereo not drawn) [Verbindung B, 2-(4-Hydroxyphenyl)-5-(5-methyl-3-oxo-4,5-dihydro-2H-6-pyridazinyl)-benzimidazol]
[1]
  LD50: > 100 mg/kg
